# Experimental data from patent US8410139B2, “Prodrugs of a piperidinyl derivative as modulators of chemokine receptor activity” (Bristol-Myers Squibb Company, priority 2009, dated 2013).
# Read-outs that look alike come from different tables or passages of the source.
# Experiments:
# [1] = Thermodynamic equilibrium aqueous solubility assay; assay type: physicochemical; conditions: aqueous solvent, thermodynamic from solid, read-out: Aq. sol., mg/mL (pH)
# Protocol: Thermodynamic Equilibrium Aqueous Solubility Assay
# The calibration standard is prepared by accurately weighing 0.5-0.7 mg of sample in 5 ml of methanol. If the material is not fully soluble in methanol, other solvents such as DMSO or mixed solvents will be used.
# *The calibration standard is typically prepared fresh immediately before the start of the assay. A two-point calibration curve should be used to determine the concentration of the final solution. A serial dilution is performed on the standard solution.
# The final saturated solution is prepared by adding 1.0 ml of the appropriate aqueous solvent to the remaining portion of material (˜1 mg/l ml) into a 1 dram vial. The solution is sonicated and vortexed for ˜30 seconds. The sample solution is placed on an orbiter that continually agitates the sample solutions for 15-24 hours at room temperature. The final saturated solution is then transferred to a 1.5 ml Eppendorf tube and centrifuged for ˜2 min. at 10000 rpms. The supernatant from the saturated solution is transferred to a glass HPLC vial without filtering since the 1.5 mL volume is insufficient to saturate a syringe filter. This sample preparation procedure nullifies the effects of non-specific binding to the filtering apparatus.
# The standards and sample are analyzed by HPLC using either UV/Vis diode array or variable wavelength detection. Typical quantitation wavelengths are 210 or 254 nm; detection wavelength can be individually customized to optimize sensitivity. In addition to UV detection, mass spectrometry detection is recommended if available in order to confirm the identity of the HPLC-UV peak of interest.
# Dilutions of aqueous test solutions are performed if HPLC-UV peak is beyond the linear portion of the standard calibration curve. Typical dilutions include 100 ul/900 ul (×10) or 500 ul/500 ul (2×), as required.
# HPLC grade solvents are employed.
# [2] = Solution stability assay (pH 1.0 and pH 7.4, 37° C.); assay type: physicochemical; conditions: conversion of the prodrug to compound 1, 37° C., read-out: Aq. Stability half-life (pH 1/7.4) Hrs (converted)
# Protocol: Acetonitrile Stock Solution: Prepare an Acetonitrile Stock Solution of the prodrug by dissolving 1.5-2.0 mg of accurately weighted compound in 5.0 mL of acetonitrile in 5 mL volumetric flask.
# (§1) pH 7.4 Buffer Working Solution: Prepare a pH 7.4 Buffer working Solution of drug by adding 1.5 mL of the Acetonitrile Stock Solution to 3.5 mL of stability buffer in a 20 mL scintillation vial, mix very well. Using a 3 mL syringe withdraw ˜3 mL of solution and filter using the Gelman 0.45 μm syringe filter into a clean 1.5 mL LC vial. This filtered solution will be used to evaluate the prodrug degradation throughout the course of the study. Target concentration: 90-120 μg/mL (70% Aqueous: 30% Acetonitrile)
# as §1, with “1.0 Acidic” for “7.4 Buffer”, “pH1.0 Working” for “pH 7.4 Buffer working”
# Following the sample preparation procedure described above a single sample (n=1) is prepared for each pH condition. The samples were then placed in an HPLC autosampler maintained at 37° C. and samples were analyzed over a 24 hr period. Prodrug remaining (%) is reported relative to the initial peak area (t=0 h). In cases where a conversion to parent half-life could be calculated, a t1/2 was generated. Confirmation of the conversion to parent from the prodrug was obtained by LCMS and HPLC analysis of the final timepoint samples.
# Typical LC parameters are shown below:
# • HPLC System: HP1100 Series, Hewlett Packard., Heated autosampler • Analytical column. Synergi 4u Hydro C18, 4.6 mm×5.0 cm, Phenomenex • Column temperature: 40° C. • Autosampler temp: 37° C. • Flow rate: 1.0 mL/min • Injection Volume: 10 μL • Mobile Phase: A: Acetonitrile • B: 0.1% Phosphoric acid in water • Run Time: 14.0 minutes • Typical LCMS parameters are shown below: • LC-MS System: Surveyor HPLC system, ThermoFinnigan LCQ Deca XP Max (Ion trap) • Analytical column. Synergi 4u Hydro C18, 4.6 mm×5.0 cm, Phenomenex • Column temperature: 40° C. • Autosampler temp: 22° C. • Flow rate: 1.0 mL/min • Injection Volume: 5 […] • Mobile Phase: A: 95% Acetonitrile/5% 20 mM Ammonium Acetate • B: 5% Acetonitrile/95% 20 mM Ammonium Acetate • LCQ Parameters • Sheath Flow Rate: 81.64 • Aux/Sweep Flow Rate: 19.01 • Current (uA): 10.89 • Voltage (kV): 5.00 • Capillary©: 348.10 • Capillary Voltage (V): 30.44
Structure (SMILES),"solubility thermodynamic ([1]; pH 7.4, aqueous buffer) [mg/mL]",half-life ([2]; pH 1) [h],half-life ([2]; pH 7.4) [h],"solubility thermodynamic ([1]; pH 6.5, aqueous buffer) [mg/mL]"
CC(C)[C@@H](NC(=O)NCC(C)(C)OC(=O)CS(=O)(=O)O)C(=O)N1CC[C@](O)(c2ccc(Cl)cc2)C(C)(C)C1 [Example 21],> 16,> 22,> 22,
"CC(C)[C@@H](NC(=O)NCC(C)(C)OC(=O)OCCN1CCOCC1)C(=O)N1CC[C@](O)(c2ccc(Cl)cc2)C(C)(C)C1 [Example 7, 1-(3-((R)-1-((S)-4-(4-chlorophenyl)-4-hydroxy-3,3-dimethylpiperidin-1-yl)-3-methyl-1-oxobutan-2-yl)ureido)-2-methylpropan-2-yl 2-morpholinoethyl carbonate]",,85,131,0.34
CC(C)[C@@H](NC(=O)NCC(C)(C)OC(=O)OCOC(=O)C(C)(C)N)C(=O)N1CC[C@](O)(c2ccc(Cl)cc2)C(C)(C)C1 [Example 13],,10.1,0.25,
CC(C)[C@@H](NC(=O)NCC(C)(C)OC(=O)CCC(=O)O)C(=O)N1CC[C@](O)(c2ccc(Cl)cc2)C(C)(C)C1 [Example 19],,> 22,> 22,0.08
CC(O)C(=O)OCO[C@]1(c2ccc(Cl)cc2)CCN(C(=O)[C@H](NC(=O)NCC(C)(C)O)C(C)C)CC1(C)C (stereo partly shown) [Example 27],,36,> 22,0.5
CC(C)[C@@H](NC(=O)NCC(C)(C)OC(=O)OCOC(=O)CS(=O)(=O)O)C(=O)N1CC[C@](O)(c2ccc(Cl)cc2)C(C)(C)C1 [Example 34],,47,> 22,> 0.18
CC(C)[C@@H](NC(=O)NCC(C)(C)OC(=O)OCOP(=O)(O)O)C(=O)N1CC[C@](O)(c2ccc(Cl)cc2)C(C)(C)C1 [Example 11],,107,0.3,
CC(COC(=O)OC(C)(C)CNC(=O)N[C@@H](C(=O)N1CC[C@](O)(c2ccc(Cl)cc2)C(C)(C)C1)C(C)C)OP(=O)(O)O (stereo partly shown) [Example 36],,97,> 22,> 1.2
CC(C)[C@@H](NC(=O)NCC(C)(C)OC(=O)C(N)CS(=O)(=O)O)C(=O)N1CC[C@](O)(c2ccc(Cl)cc2)C(C)(C)C1 (stereo partly shown) [Example 32],,> 22,> 22,1.12
CC(C)[C@@H](NC(=O)NCC(C)(C)OC(=O)OCS(=O)(=O)O)C(=O)N1CC[C@](O)(c2ccc(Cl)cc2)C(C)(C)C1 [Example 23],,25,23,> 0.3
CC(OP(=O)(O)O)C(=O)OC(C)(C)CNC(=O)N[C@@H](C(=O)N1CC[C@](O)(c2ccc(Cl)cc2)C(C)(C)C1)C(C)C (stereo partly shown) [Example 31],,61,> 22,> 3.3
CC(C)[C@@H](NC(=O)NCC(C)(C)OC(=O)CCOP(=O)(O)O)C(=O)N1CC[C@](O)(c2ccc(Cl)cc2)C(C)(C)C1 [Example 29],,81,> 22,4.8
"CC(=O)OC(C)(C)CNC(=O)N[C@@H](C(=O)N1CC[C@](O)(c2ccc(Cl)cc2)C(C)(C)C1)C(C)C [Example 4, 1-(3-((R)-1-((S)-4-(4-chlorophenyl)-4-hydroxy-3,3-dimethylpiperidin-1-yl)-3-methyl-1-oxobutan-2-yl)ureido)-2-methylpropan-2-yl acetate]",,29,> 22,0.03
CC(O)C(=O)OC(C)(C)CNC(=O)N[C@@H](C(=O)N1CC[C@](O)(c2ccc(Cl)cc2)C(C)(C)C1)C(C)C (stereo partly shown) [Example 30],,33,> 22,0.31
"CC(C)[C@H](N)C(=O)OC(C)(C)CNC(=O)N[C@@H](C(=O)N1CC[C@](O)(c2ccc(Cl)cc2)C(C)(C)C1)C(C)C [Example 3, (S)-1-(3-((R)-1-((S)-4-(4-chlorophenyl)-4-hydroxy-3,3-dimethylpiperidin-1-yl)-3-methyl-1-oxobutan-2-yl)ureido)-2-methylpropan-2-yl 2-amino-3-methylbutanoate]",,237,> 22,> 0.6
CC(C)[C@@H](NC(=O)NCC(C)(C)OC(=O)CCCC(=O)O)C(=O)N1CC[C@](O)(c2ccc(Cl)cc2)C(C)(C)C1 [Example 20],,> 22,> 22,0.317
CCC(O)CC(=O)OCOC(=O)OC(C)(C)CNC(=O)N[C@@H](C(=O)N1CC[C@](O)(c2ccc(Cl)cc2)C(C)(C)C1)C(C)C (stereo partly shown) [Example 33],,> 22,> 22,> 1.6
"CC(C)[C@@H](NC(=O)NCC(C)(C)OC(=O)OCOC(=O)/C=C/C(=O)O)C(=O)N1CC[C@](O)(c2ccc(Cl)cc2)C(C)(C)C1 [Example 6, (R,E)-3-((S)-4-(4-chlorophenyl)-4-hydroxy-3,3-dimethylpiperidine-1-carbonyl)-2,8,8-trimethyl-5,10,14-trioxo-9,11,13-trioxa-4,6-diazaheptadec-15-en-17-oic acid]",,61,49,2.2
CC(C)[C@@H](NC(=O)NCC(C)(C)OC(=O)CCS(=O)(=O)O)C(=O)N1CC[C@](O)(c2ccc(Cl)cc2)C(C)(C)C1 [Example 22],,44,> 22,> 7
CC(C)[C@@H](NC(=O)NCC(C)(C)O)C(=O)N1CC[C@](OCOC(=O)[C@@H](C)O)(c2ccc(Cl)cc2)C(C)(C)C1 [Example 25],> 0.32,16.6,73,
CC(O)COC(=O)OC(C)(C)CNC(=O)N[C@@H](C(=O)N1CC[C@](O)(c2ccc(Cl)cc2)C(C)(C)C1)C(C)C (stereo partly shown) [Example 35],,100,30.3,0.18
CCOC(=O)CCC(=O)OC(C)(C)CNC(=O)N[C@@H](C(=O)N1CC[C@](O)(c2ccc(Cl)cc2)C(C)(C)C1)C(C)C [Example 17],< 0.007,> 22,> 22,
"CCC(=O)OC(C)(C)CNC(=O)N[C@@H](C(=O)N1CC[C@](O)(c2ccc(Cl)cc2)C(C)(C)C1)C(C)C [Example 5, 1-(3-((R)-1-((S)-4-(4-chlorophenyl)-4-hydroxy-3,3-dimethylpiperidin-1-yl)-3-methyl-1-oxobutan-2-yl)ureido)-2-methylpropan-2-yl propionate]",,25,> 22,0.04
CC(C)[C@@H](NC(=O)NCC(C)(C)OCOP(=O)(O)O)C(=O)N1CC[C@](O)(c2ccc(Cl)cc2)C(C)(C)C1 [Example 10],,< 1,,
CC(C)[C@@H](N)C(=O)OCOC(=O)OC(C)(C)CNC(=O)N[C@@H](C(=O)N1CC[C@](O)(c2ccc(Cl)cc2)C(C)(C)C1)C(C)C [Example 12],,82,0.3,
